Data reported in patent US12365651B2, “Use of pirfenidone and derivatives for modulation of B lymphocyte activity and organ protection from acute tissue damage” (Washington University, priority 2017, dated 2025).
Values joined by “and” are separate entries in the source; they are usually repeats but may differ in a detail not shown here. Equal values may be shown once.

Tests used:
[1] = system: Peritoneal derived inflammatory cells; experiment: In vitro immunomodulatory effect of tested PEG compounds (CD86 on CD19+ cells, LPS); format: cell-based, mouse; conditions: potency in molarity; toxicity by visual inspection and DAPI staining (FIG. 11D)
Protocol: Peritoneal derived inflammatory cells were collected on day for post intraperitoneal injection of Thyoglicollate. Cells were cultured for 24 h in baseline condition (control), in the presence of LPS 100 ng/ml (LPS) or in the presence of LPS 100 ng/ml and various concentrations of different forms of Pegylated Pirfenidone (named C2 and C3 in FIG. 11A and C4 to C6 in FIG. 11B)). After the 24 h in culture cells were collected and analyzed via flow cytometry to assess the expression of CD86 on CD19+ cells (B lymphocytes). […] FIG. 11C reports the molecular weights of the tested forms of PEGylated Pirfenidone and the molecular weight (MW) ration between the tested compound and Pirfenidone).

[2] = Plasma pharmacokinetics after IV or PO administration; format: in vivo, SD Rat
Protocol: Pirfenidone and Pegyonde-6 were administered at equimolar concentrations to rats IV or per os (PO) and serum concentrations measured at different time points to measure pharmacokinetic parameters. The drugs were solubilized in 5% Alcohol+20% PEG 300 in saline.

[3] = as above; format: in vivo; conditions: SD Rat, 96 mg/kg
[4] = SD Rat, IV 96 mg/kg, individual rats 4-6, 96 mg/kg
[5] = SD Rat, PO 96 mg/kg, individual rats 10-12, 96 mg/kg

- AUC0-t, Mean ([2]; SD Rat, IV 96 mg/kg): 34197 ng·h/mL
- AUC0-∞, Mean ([2]; SD Rat, IV 96 mg/kg): 34229 ng·h/mL
- AUMC0-t, Mean ([2]; SD Rat, IV 96 mg/kg): 18176 h*h*ng/mL
- AUMC0—∞, Mean ([2]; SD Rat, IV 96 mg/kg): 18540 h*h*ng/mL
- CL(/F), Mean ([2]; SD Rat, IV 96 mg/kg): 48.72 mL/min/kg
- Cmax, Mean ([2]; SD Rat, IV 96 mg/kg): 65733 ng/mL
- MRTINF, Mean ([2]; SD Rat, IV 96 mg/kg): 33.8 min
- T1/2, Mean ([2]; SD Rat, IV 96 mg/kg): 79.8 min
- Tmax, Mean ([2]; SD Rat, IV 96 mg/kg): 4.98 min
- Vss (/F), Mean ([2]; SD Rat, IV 96 mg/kg): 1.7 L/kg
- Plasma concentrations of PEG-Pirfenidone, Mean ([2]; SD Rat, IV 96 mg/kg, 0.083 h): 65733 ng/mL
- Plasma concentrations of PEG-Pirfenidone, Mean ([2]; SD Rat, IV 96 mg/kg, 0.25 h): 41336 ng/mL
- Plasma concentrations of PEG-Pirfenidone, Mean ([2]; SD Rat, IV 96 mg/kg, 0.5 h): 17149 ng/mL
- Plasma concentrations of PEG-Pirfenidone, Mean ([2]; SD Rat, IV 96 mg/kg, 1 h): 6090 ng/mL
- Plasma concentrations of PEG-Pirfenidone ([2]; SD Rat, IV 96 mg/kg, 1 h, individual rats 4-6, 96 mg/kg): 5974 ng/mL and 6543 ng/mL and 5755 ng/mL
- Plasma concentrations of PEG-Pirfenidone, Mean ([2]; SD Rat, IV 96 mg/kg, 2 h): 1533 ng/mL
- Plasma concentrations of PEG-Pirfenidone ([2]; SD Rat, IV 96 mg/kg, 2 h, individual rats 4-6, 96 mg/kg): 1786 ng/mL and 2091 ng/mL and 721 ng/mL
- Plasma concentrations of PEG-Pirfenidone, Mean ([2]; SD Rat, IV 96 mg/kg, 4 h): 183 ng/mL
- Plasma concentrations of PEG-Pirfenidone ([2]; SD Rat, IV 96 mg/kg, 4 h, individual rats 4-6, 96 mg/kg): 216 ng/mL and 156 ng/mL and 178 ng/mL
- Plasma concentrations of PEG-Pirfenidone, Mean ([2]; SD Rat, IV 96 mg/kg, 8 h): 20.3 ng/mL
- Plasma concentrations of PEG-Pirfenidone ([2]; SD Rat, IV 96 mg/kg, 8 h, individual rats 4-6, 96 mg/kg): 12.9 ng/mL and 11.5 ng/mL and 36.3 ng/mL
- Plasma concentrations of PEG-Pirfenidone, Mean ([2]; SD Rat, IV 96 mg/kg, 24 h): 2.97 ng/mL
- Tmax ([2]; SD Rat, IV 96 mg/kg, individual rats 4-6): 4.98 min
- MRTINF [2, 4]: 39 min and 37.6 min and 24.7 min
- T1/2 [2, 4]: 48.2 min and 106 min and 85.8 min
- Vss (/F) [2, 4]: 2.366 L/kg and 1.823 L/kg and 0.912 L/kg
- AUC0-t, Mean ([2]; SD Rat, PO 96 mg/kg): 16811 ng·h/mL
- AUC0-∞, Mean ([2]; SD Rat, PO 96 mg/kg): 16838 ng·h/mL
- AUMC0-t, Mean ([2]; SD Rat, PO 96 mg/kg): 10264 h*h*ng/mL
- AUMC0—∞, Mean ([2]; SD Rat, PO 96 mg/kg): 10527 h*h*ng/mL
- Cmax, Mean ([2]; SD Rat, PO 96 mg/kg): 23584 ng/mL
- MRTINF, Mean ([2]; SD Rat, PO 96 mg/kg): 37.6 min
- T1/2, Mean ([2]; SD Rat, PO 96 mg/kg): 70.8 min
- Tmax, Mean ([2]; SD Rat, PO 96 mg/kg): 15 min
- F % ([2]; SD Rat, PO 96 mg/kg vs IV 96 mg/kg): 49.16%
- Plasma concentrations of PEG-Pirfenidone, Mean ([2]; SD Rat, PO 96 mg/kg, 0.25 h): 23584 ng/mL
- Plasma concentrations of PEG-Pirfenidone, Mean ([2]; SD Rat, PO 96 mg/kg, 0.5 h): 19224 ng/mL
- Plasma concentrations of PEG-Pirfenidone, Mean ([2]; SD Rat, PO 96 mg/kg, 1 h): 3748 ng/mL
- Plasma concentrations of PEG-Pirfenidone ([2]; SD Rat, PO 96 mg/kg, 1 h, individual rats 10-12, 96 mg/kg): 1157 ng/mL and 7033 ng/mL and 3053 ng/mL
- Plasma concentrations of PEG-Pirfenidone, Mean ([2]; SD Rat, PO 96 mg/kg, 2 h): 440 ng/mL
- Plasma concentrations of PEG-Pirfenidone, Mean ([2]; SD Rat, PO 96 mg/kg, 4 h): 69 ng/mL
- Plasma concentrations of PEG-Pirfenidone ([2]; SD Rat, PO 96 mg/kg, 4 h, individual rats 10-12, 96 mg/kg): 28.4 ng/mL and 129 ng/mL and 48.8 ng/mL
- Plasma concentrations of PEG-Pirfenidone, Mean ([2]; SD Rat, PO 96 mg/kg, 8 h): 14 ng/mL
- Plasma concentrations of PEG-Pirfenidone ([2]; SD Rat, PO 96 mg/kg, 8 h, individual rats 10-12, 96 mg/kg): 3.09 ng/mL and 33.4 ng/mL and 6.16 ng/mL
- Tmax ([2]; SD Rat, PO 96 mg/kg, individual rats 10-12): 15 min
- MRTINF [2, 5]: 39.8 min and 38.9 min and 33.9 min
- T1/2 [2, 5]: 60.6 min and 80.4 min and 71.4 min
- half-life compared with Pirfenidone ([2]; rats, equimolar, after both IV and PO administration): longer half-life than Pirfenidone
- Plasma concentrations of PEG-Pirfenidone ([3]; PO 96 mg/kg, 2 h, individual rats 10-12): 219 ng/mL and 885 ng/mL and 217 ng/mL
SMILES: COCCOCCOCCOCCOCCOCc1ccc(-n2cc(C)ccc2=O)cc1 [PEG-Pirfenidone]
- relative potency to Pirfenidone and in vitro toxicity [1]: superior to the other tested variants
- Plasma concentrations of PEG-Pirfenidone ([2]; SD Rat, IV 96 mg/kg, 0.25 h, individual rats 4-6, 96 mg/kg): 27605 ng/mL and 35059 ng/mL and 61343 ng/mL
- Plasma concentrations of PEG-Pirfenidone ([2]; SD Rat, IV 96 mg/kg, 24 h, individual rats 4-6, 96 mg/kg): BLOQ (Below lower limit of quantification (1 ng/mL)) (2×) and 2.97 ng/ml
- AUC0-t [2, 4]: 26338 ng·h/mL and 32960 ng·h/mL and 43292 ng·h/mL
- AUC0-∞ [2, 4]: 26353 ng·h/mL and 32968 ng·h/mL and 43367 ng·h/mL
- AUMC0-t [2, 4]: 16980 h*h*ng/mL and 20439 h*h*ng/mL and 17108 h*h*ng/mL
- AUMC0—∞ [2, 4]: 17118 h*h*ng/mL and 20640 h*h*ng/mL and 17863 h*h*ng/mL
- CL(/F) [2, 4]: 60.72 mL/min/kg and 48.53 mL/min/kg and 36.9 mL/min/kg
- Cmax [2, 4]: 44227 ng/mL and 56484 ng/mL and 96487 ng/mL
- Plasma concentrations of PEG-Pirfenidone ([2]; SD Rat, PO 96 mg/kg, 0.25 h, individual rats 10-12, 96 mg/kg): 8298 ng/mL and 40817 ng/mL and 21638 ng/mL
- Plasma concentrations of PEG-Pirfenidone ([2]; SD Rat, PO 96 mg/kg, 0.5 h, individual rats 10-12, 96 mg/kg): 3977 ng/mL and 35217 ng/mL and 18477 ng/mL
- Plasma concentrations of PEG-Pirfenidone ([2]; SD Rat, PO 96 mg/kg, 24 h, individual rats 10-12): BLOQ (Below lower limit of quantification (1 ng/mL))
- AUC0-t [2, 5]: 4853 ng·h/mL and 30468 ng·h/mL and 15112 ng·h/mL
- AUC0-∞ [2, 5]: 4858 ng·h/mL and 30533 ng·h/mL and 15123 ng·h/mL
- AUMC0-t [2, 5]: 3178 h*h*ng/mL and 19172 h*h*ng/mL and 8441 h*h*ng/mL
- AUMC0—∞ [2, 5]: 3221 h*h*ng/mL and 19815 h*h*ng/mL and 8544 h*h*ng/mL
- Cmax [2, 5]: 8298 ng/mL and 40817 ng/mL and 21638 ng/mL
- Plasma concentrations of PEG-Pirfenidone ([3]; IV 96 mg/kg, 0.083 h, individual rats 4-6): 44227 ng/mL and 56484 ng/mL and 96487 ng/mL
- Plasma concentrations of PEG-Pirfenidone ([3]; IV 96 mg/kg, 0.5 h, individual rats 4-6): 13073 ng/mL and 18584 ng/mL and 19790 ng/mL
